Measurements as given in patent publication US20070049564A1 (Wyeth, priority 2005, published 2007).
In brackets after ≈: the same amount, converted by molar mass. Like-named read-outs stand apart in the source and are kept apart here.

What was measured:
[1] = tested on: E. coli GC 2231; experiment: MIC, broth microdilution; conditions: Escherichia coli
Method: (§1) Antimicrobial susceptibility testing. The in vitro activities of the antibiotics are determined by the broth microdilution method as recommended by the National Committee for Clinical Laboratory Standards (NCCLS) (1). Mueller-Hinton II broth (MHBII)(BBL Cockeysville, Md.) is the medium employed in the testing procedures. Microtiter plates containing serial dilutions of each antimicrobial agent are inoculated with each organism to yield the appropriate density (10^5 CFU/ml) in a 100 μl final volume. The plates are incubated for 18-22 hours at 35° C. in ambient air.
(§2) Representative compounds were first incubated in mouse serum for an hour prior to the in vitro testing against a panel of selected gram-positive and gram-negative bacteria strains. All compounds were also pre-incubated in water for an hour prior to testing as control.

[2] = tested on: S. aureus GC 6467; experiment: MIC, broth microdilution; conditions: Staphylococcus aureus
[3] = tested on: E. coli GC 2236; experiment: MIC, broth microdilution; conditions: Escherichia coli
Method: Antimicrobial susceptibility testing. The in vitro activities of the antibiotics are determined by the broth microdilution method as recommended by the National Committee for Clinical Laboratory Standards (NCCLS) (1). Mueller-Hinton II broth (MHBII)(BBL Cockeysville, Md.) is the medium employed in the testing procedures. Microtiter plates containing serial dilutions of each antimicrobial agent are inoculated with each organism to yield the appropriate density (10^5 CFU/ml) in a 100 μl final volume. The plates are incubated for 18-22 hours at 35° C. in ambient air. […] Standard Pharmacological Test Procedures
Presented in Tables I-XIII are representative compounds of Formula I which were evaluated against a panel of 40 selected gram-positive and gram-negative bacteria strains by pre-incubation in water, mouse serum or human serum. Representative compounds were first incubated in mouse serum for an hour prior to the in vitro testing against a panel of selected gram-positive and gram-negative bacteria strains. All compounds were also pre-incubated in water for an hour prior to testing as control. Representative compounds of Formula I were incubated in human serum prior to MIC determination.

[4] = tested on: S. aureus GC 6466; experiment: MIC, broth microdilution; conditions: Staphylococcus aureus
[5] = tested on: S. aureus GC 1079; experiment: MIC, broth microdilution; conditions: Staphylococcus aureus
[6] = tested on: Staph.; experiment: Range of MIC for Staph. strains, including MRSA; conditions: Staphylococcus aureus
[7] = tested on: S. epidermidis GC 4935; experiment: MIC, broth microdilution; conditions: Staphylococcus epidermidis
[8] = tested on: E. coli GC 2203; experiment: MIC, broth microdilution; conditions: Escherichia coli
[9] = tested on: E. coli GC 2234; experiment: MIC, broth microdilution; conditions: Escherichia coli
[10] = tested on: E. coli GC 4560; experiment: MIC, broth microdilution; conditions: Escherichia coli
[11] = tested on: E. faecalis GC 2267; experiment: MIC, broth microdilution; conditions: Enterococcus faecalis
[12] = tested on: S. aureus GC 1131; experiment: MIC, broth microdilution; conditions: Staphylococcus aureus
[13] = tested on: E. coli GC 2272; experiment: MIC, broth microdilution; conditions: Escherichia coli
[14] = tested on: E. coli GC 2233; experiment: MIC, broth microdilution; conditions: Escherichia coli
Method: as §1, §2

[15] = tested on: S. pneumoniae* GC 4465; experiment: MIC, broth microdilution; conditions: Streptococcus pneumoniae
[16] = tested on: E. faecalis GC 4555; experiment: MIC, broth microdilution; conditions: Enterococcus faecalis
[17] = tested on: S. typhimurium GC 2172; experiment: MIC, broth microdilution; conditions: Salmonella enterica, TYPHIMURIUM
[18] = tested on: E. coli GC 2235; experiment: MIC, broth microdilution; conditions: Escherichia coli
[19] = tested on: E. coli GC 6465; experiment: MIC, broth microdilution; conditions: Escherichia coli
[20] = tested on: E. faecium GC 4556; experiment: MIC, broth microdilution; conditions: Enterococcus faecium
[21] = read-out: MINIMAL INHIBITORY CONCENTRATION MIC, Human Serum
[22] = read-out: MINIMAL INHIBITORY CONCENTRATION MIC, Mouse Serum
[23] = read-out: MINIMAL INHIBITORY CONCENTRATION MIC, Water

## CCC(=O)OCOC(=O)N(CC(=O)Nc1cc(N(C)C)c2c(c1O)C(=O)C1=C(O)[C@]3(O)C(=O)C(C(N)=O)=C(O)[C@@H](N(C)C)[C@@H]3C[C@@H]1C2)C(C)(C)C [Example 49, ({[(2-{[(5aR,6aS,7S,10aS)-9-(aminocarbonyl)-4,7-bis(dimethylamino)-1,8,10a,11-tetrahydroxy-10,12-dioxo-5,5a,6,6a,7,10,10a,12-octahydrotetracen-2-yl]amino}-2-oxoethyl)(tert-butyl)amino]carbonyl}oxy)methyl propionate]
[1]; GC2231, read-out: MINIMAL INHIBITORY CONCENTRATION MIC, Human Serum
  MIC: 8 µg/mL (≈ 11.2 µM)
[1]; GC2231, read-out: MINIMAL INHIBITORY CONCENTRATION MIC, Mouse Serum
  MIC: 0.5 µg/mL (≈ 0.699 µM)
[1]; GC2231, read-out: MINIMAL INHIBITORY CONCENTRATION MIC, Water
  MIC: 16 µg/mL (≈ 22.4 µM)
[2]; GC6467, read-out: MINIMAL INHIBITORY CONCENTRATION MIC, Human Serum
  MIC: 1 µg/mL (≈ 1.4 µM)
[2]; GC6467, read-out: MINIMAL INHIBITORY CONCENTRATION MIC, Mouse Serum
  MIC: 1 µg/mL (≈ 1.4 µM)
[2]; GC6467, read-out: MINIMAL INHIBITORY CONCENTRATION MIC, Water
  MIC: 2 µg/mL (≈ 2.79 µM)
[3]; GC2236, read-out: MINIMAL INHIBITORY CONCENTRATION MIC, Human Serum
  MIC: 4 µg/mL (≈ 5.59 µM)
[3]; GC2236, read-out: MINIMAL INHIBITORY CONCENTRATION MIC, Mouse Serum
  MIC: 0.5 µg/mL (≈ 0.699 µM)
[3]; GC2236, read-out: MINIMAL INHIBITORY CONCENTRATION MIC, Water
  MIC: 16 µg/mL (≈ 22.4 µM)
[4]; GC6466, read-out: MINIMAL INHIBITORY CONCENTRATION MIC, Human Serum
  MIC: 0.12 µg/mL (≈ 0.168 µM)
[4]; GC6466, read-out: MINIMAL INHIBITORY CONCENTRATION MIC, Mouse Serum
  MIC: 0.12 µg/mL (≈ 0.168 µM)
[4]; GC6466, read-out: MINIMAL INHIBITORY CONCENTRATION MIC, Water
  MIC: 0.12 µg/mL (≈ 0.168 µM)
[5]; GC1079, read-out: MINIMAL INHIBITORY CONCENTRATION MIC, Human Serum
  MIC: 0.5 µg/mL (≈ 0.699 µM)
[5]; GC1079, read-out: MINIMAL INHIBITORY CONCENTRATION MIC, Mouse Serum
  MIC: 0.5 µg/mL (≈ 0.699 µM)
[5]; GC1079, read-out: MINIMAL INHIBITORY CONCENTRATION MIC, Water
  MIC: 0.5 µg/mL (≈ 0.699 µM)
[6]; MRSA, read-out: Range of MIC, Staph (Mouse Serum)
  MIC: 0.12 to 1 µg/mL (≈ 0.168 to 1.4 µM)
[6]; MRSA, read-out: Range of MIC, Staph (Water)
  MIC: 0.12 to 2 µg/mL (≈ 0.168 to 2.79 µM)
[6]; read-out: Minimum inhibitory concentration (MIC), Staph (Human Serum)
  MIC: 0.12 to 1 µg/mL (≈ 0.168 to 1.4 µM)
[6]; read-out: Minimum inhibitory concentration (MIC), Staph (Water)
  MIC: 0.12 to 2 µg/mL (≈ 0.168 to 2.79 µM)
[7]; GC4935, read-out: MINIMAL INHIBITORY CONCENTRATION MIC, Human Serum
  MIC: 1 µg/mL (≈ 1.4 µM)
[7]; GC4935, read-out: MINIMAL INHIBITORY CONCENTRATION MIC, Mouse Serum
  MIC: 1 µg/mL (≈ 1.4 µM)
[7]; GC4935, read-out: MINIMAL INHIBITORY CONCENTRATION MIC, Water
  MIC: 2 µg/mL (≈ 2.79 µM)
[8]; GC2203, read-out: MINIMAL INHIBITORY CONCENTRATION MIC, Human Serum
  MIC: 4 µg/mL (≈ 5.59 µM)
[8]; GC2203, read-out: MINIMAL INHIBITORY CONCENTRATION MIC, Mouse Serum
  MIC: 0.25 µg/mL (≈ 0.349 µM)
[8]; GC2203, read-out: MINIMAL INHIBITORY CONCENTRATION MIC, Water
  MIC: 8 µg/mL (≈ 11.2 µM)
[9]; GC2234, read-out: MINIMAL INHIBITORY CONCENTRATION MIC, Human Serum
  MIC: 4 µg/mL (≈ 5.59 µM)
[9]; GC2234, read-out: MINIMAL INHIBITORY CONCENTRATION MIC, Mouse Serum
  MIC: 0.25 µg/mL (≈ 0.349 µM)
[9]; GC2234, read-out: MINIMAL INHIBITORY CONCENTRATION MIC, Water
  MIC: 16 µg/mL (≈ 22.4 µM)
[10]; GC4560, read-out: MINIMAL INHIBITORY CONCENTRATION MIC, Human Serum
  MIC: 0.5 µg/mL (≈ 0.699 µM)
[10]; GC4560, read-out: MINIMAL INHIBITORY CONCENTRATION MIC, Mouse Serum
  MIC: 0.12 µg/mL (≈ 0.168 µM)
[10]; GC4560, read-out: MINIMAL INHIBITORY CONCENTRATION MIC, Water
  MIC: 1 µg/mL (≈ 1.4 µM)
[11]; GC2267, read-out: MINIMAL INHIBITORY CONCENTRATION MIC, Human Serum
  MIC: 1 µg/mL (≈ 1.4 µM)
[11]; GC2267, read-out: MINIMAL INHIBITORY CONCENTRATION MIC, Mouse Serum
  MIC: 0.5 µg/mL (≈ 0.699 µM)
[11]; GC2267, read-out: MINIMAL INHIBITORY CONCENTRATION MIC, Water
  MIC: 4 µg/mL (≈ 5.59 µM)
[12]; GC1131, read-out: MINIMAL INHIBITORY CONCENTRATION MIC, Human Serum
  MIC: 0.5 µg/mL (≈ 0.699 µM)
[12]; GC1131, read-out: MINIMAL INHIBITORY CONCENTRATION MIC, Mouse Serum
  MIC: 0.5 µg/mL (≈ 0.699 µM)
[12]; GC1131, read-out: MINIMAL INHIBITORY CONCENTRATION MIC, Water
  MIC: 0.5 µg/mL (≈ 0.699 µM)
[13]; GC2272, read-out: MINIMAL INHIBITORY CONCENTRATION MIC, Human Serum
  MIC: 2 µg/mL (≈ 2.79 µM)
[13]; GC2272, read-out: MINIMAL INHIBITORY CONCENTRATION MIC, Mouse Serum
  MIC: 0.5 µg/mL (≈ 0.699 µM)
[13]; GC2272, read-out: MINIMAL INHIBITORY CONCENTRATION MIC, Water
  MIC: 8 µg/mL (≈ 11.2 µM)
[14]; GC2233, read-out: MINIMAL INHIBITORY CONCENTRATION MIC, Human Serum
  MIC: 4 µg/mL (≈ 5.59 µM)
[14]; GC2233, read-out: MINIMAL INHIBITORY CONCENTRATION MIC, Mouse Serum
  MIC: 0.25 µg/mL (≈ 0.349 µM)
[14]; GC2233, read-out: MINIMAL INHIBITORY CONCENTRATION MIC, Water
  MIC: 8 µg/mL (≈ 11.2 µM)
[15]; [21]
  MIC: 0.12 µg/mL (≈ 0.168 µM)
[15]; [22]
  MIC: 0.12 µg/mL (≈ 0.168 µM)
[15]; [23]
  MIC: 0.12 µg/mL (≈ 0.168 µM)
[16]; GC4555, read-out: MINIMAL INHIBITORY CONCENTRATION MIC, Human Serum
  MIC: 0.5 µg/mL (≈ 0.699 µM)
[16]; GC4555, read-out: MINIMAL INHIBITORY CONCENTRATION MIC, Mouse Serum
  MIC: 0.25 µg/mL (≈ 0.349 µM)
[16]; GC4555, read-out: MINIMAL INHIBITORY CONCENTRATION MIC, Water
  MIC: 4 µg/mL (≈ 5.59 µM)
[17]; [21]
  MIC: 32 µg/mL (≈ 44.7 µM)
[17]; [22]
  MIC: 4 µg/mL (≈ 5.59 µM)
[17]; [23]
  MIC: > 64 µg/mL
[18]; GC2235, read-out: MINIMAL INHIBITORY CONCENTRATION MIC, Human Serum
  MIC: 4 µg/mL (≈ 5.59 µM)
[18]; GC2235, read-out: MINIMAL INHIBITORY CONCENTRATION MIC, Mouse Serum
  MIC: 0.5 µg/mL (≈ 0.699 µM)
[18]; GC2235, read-out: MINIMAL INHIBITORY CONCENTRATION MIC, Water
  MIC: 8 µg/mL (≈ 11.2 µM)
[19]; GC6465, read-out: MINIMAL INHIBITORY CONCENTRATION MIC, Human Serum
  MIC: 32 µg/mL (≈ 44.7 µM)
[19]; GC6465, read-out: MINIMAL INHIBITORY CONCENTRATION MIC, Mouse Serum
  MIC: 2 µg/mL (≈ 2.79 µM)
[19]; GC6465, read-out: MINIMAL INHIBITORY CONCENTRATION MIC, Water
  MIC: > 64 µg/mL
[20]; GC4556, read-out: MINIMAL INHIBITORY CONCENTRATION MIC, Human Serum
  MIC: 1 µg/mL (≈ 1.4 µM)
[20]; GC4556, read-out: MINIMAL INHIBITORY CONCENTRATION MIC, Mouse Serum
  MIC: 0.5 µg/mL (≈ 0.699 µM)
[20]; GC4556, read-out: MINIMAL INHIBITORY CONCENTRATION MIC, Water
  MIC: 2 µg/mL (≈ 2.79 µM)
